Source: PubChem BioAssay (NCI)
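A five-concentration, 48-hour dose response in 96-well plates underlies each endpoint, interpolated linearly between surrounding concentrations. At the GI50, growth is halved. TGI is the concentration that stops growth completely.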

Legend:
Assay in all cases: NCI tumour cell line growth inhibition, 48 h
[1] = tested on: CCRF-CEM leukemia
[2] = tested on: EKVX NSCLC
[3] = tested on: IGROV1 ovarian
[4] = tested on: K-562 leukemia
[5] = tested on: M14 melanoma
[6] = tested on: OVCAR-3 ovarian
[7] = tested on: SN12C renal
[8] = tested on: SW-620 colon
[9] = tested on: UACC-257 melanoma
[10] = tested on: SR leukemia

Compound: COc1cc(/C=N/Nc2ncnc3c2cnn3C(C)C)ccc1O
- GI50 [1]: 8.07 µM
- TGI [1]: > 23.1 µM
- GI50 [2]: 11.6 µM
- TGI [2]: > 25 µM
- GI50 [3]: 7.56 µM
- TGI [3]: 20.5 µM
- GI50 [4]: 7.2 µM
- TGI [4]: > 25 µM
- GI50 [5]: 11.8 µM
- TGI [5]: > 25 µM
- GI50 [6]: 8.47 µM
- TGI [6]: > 25 µM
- GI50 [7]: 8.27 µM
- TGI [7]: > 25 µM
- GI50 [8]: 8.41 µM
- TGI [8]: > 25 µM
- GI50 [9]: 14.9 µM
- TGI [9]: > 25 µM

Compound: O=C1c2ccccc2NC(c2cc(Cl)cc(Cl)c2O)N1CCc1ccccn1 (stereo not given)
- TGI [2]: > 100 µM
- TGI [3]: > 100 µM
- TGI [4]: > 100 µM
- TGI [5]: > 100 µM
- TGI [6]: > 100 µM
- TGI [7]: > 100 µM
- TGI [10]: > 100 µM
- TGI [8]: > 100 µM
- TGI [9]: > 100 µM

Compound: COc1c(C2=NC(C(C)C)CO2)ccc2ccccc12 (stereo not given)
- TGI [1]: > 100 µM
- TGI [2]: > 100 µM
- TGI [3]: > 100 µM
- TGI [4]: > 100 µM
- TGI [5]: > 100 µM
- TGI [6]: > 100 µM
- TGI [7]: > 100 µM
- TGI [8]: > 100 µM
- TGI [9]: > 100 µM

Compound: CC1(C)CCC[C@@]2(C)C1C[C@H](O)[C@@]1(C)O[C@@](C)([C@H](O)CO)CCC21 (stereo not given in full)
- TGI [1]: > 100 µM
- TGI [2]: > 100 µM
- TGI [3]: 70.6 µM
- TGI [4]: > 100 µM
- TGI [5]: > 100 µM
- TGI [6]: > 100 µM
- TGI [7]: > 100 µM
- TGI [8]: > 100 µM
- TGI [9]: > 100 µM

Compound: CCOC(=O)C1=C(C)NC2SC(=O)/C(=C\c3ccccc3Cl)N2C1c1ccccc1 (stereo not given)
- GI50 [1]: > 100 µM
- TGI [1]: > 100 µM
- GI50 [2]: > 100 µM
- TGI [2]: > 100 µM
- GI50 [3]: > 100 µM
- TGI [3]: > 100 µM
- GI50 [4]: > 100 µM
- TGI [4]: > 100 µM
- GI50 [5]: > 100 µM
- TGI [5]: > 100 µM
- GI50 [6]: > 100 µM
- TGI [6]: > 100 µM
- GI50 [7]: > 100 µM
- TGI [7]: > 100 µM
- GI50 [8]: > 100 µM
- TGI [8]: > 100 µM
- GI50 [9]: > 100 µM
- TGI [9]: > 100 µM

Compound: CN1C(OCc2ccccc2)c2c(ccc3c2OCO3)C2C=Cc3cc4c(cc3C21)OCO4 (stereo not given)
- TGI [1]: 1.05 µM
- TGI [2]: 2.98 µM
- TGI [3]: 2.09 µM
- TGI [5]: 2.1 µM
- TGI [6]: 1.97 µM
- TGI [7]: 2.61 µM
- TGI [8]: 1.35 µM
- TGI [9]: 2.68 µM

Compound: CC(=O)Nc1ccc(-c2c3nc(c(-c4cc5ccccc5[n+](C)c4)c4ccc([nH]4)c(-c4ccc(NC(C)=O)cc4)c4nc(c(-c5cc6ccccc6[n+](C)c5)c5ccc2[nH]5)C=C4)C=C3)cc1
- GI50 [1]: 0.721 µM
- TGI [1]: > 50 µM
- GI50 [2]: 9.09 µM
- TGI [2]: 31.6 µM
- GI50 [3]: 13.7 µM
- TGI [3]: > 50 µM
- GI50 [4]: 20.1 µM
- TGI [4]: > 50 µM
- GI50 [5]: 28.6 µM
- TGI [5]: > 50 µM
- GI50 [6]: 2.37 µM
- TGI [6]: 12.9 µM
- GI50 [7]: 7.09 µM
- TGI [7]: 23.2 µM
- GI50 [8]: 23.6 µM
- TGI [8]: > 50 µM
- GI50 [9]: 11.7 µM
- TGI [9]: 47.6 µM

Compound: COc1cccc(C(=O)Nc2ccc(CN3CCc4nc5cc(OC)c(OC)cc5cc43)cc2)c1
- GI50 [1]: 3.35 µM
- TGI [1]: 36.5 µM
- GI50 [3]: 5.15 µM
- TGI [3]: > 100 µM
- GI50 [4]: 3.72 µM
- TGI [4]: 15.5 µM
- GI50 [5]: 3.76 µM
- TGI [5]: 16.4 µM
- GI50 [7]: 3.9 µM
- TGI [7]: 16.4 µM
- GI50 [10]: 3.07 µM
- TGI [10]: 9.64 µM
- GI50 [8]: 4.16 µM
- TGI [8]: 19.4 µM
- GI50 [9]: 5.47 µM
- TGI [9]: 92.6 µM
